Patent US9029389B2 (Institut Pasteur Korea, priority 2011, dated 2015)

Biological target: T1, Human 5-lipoxygenase (Homo sapiens, UniProt P09917)
T1 construct: purchased Cayman 60402; host or cells: insect cells
T1 sequence (P09917 1-674): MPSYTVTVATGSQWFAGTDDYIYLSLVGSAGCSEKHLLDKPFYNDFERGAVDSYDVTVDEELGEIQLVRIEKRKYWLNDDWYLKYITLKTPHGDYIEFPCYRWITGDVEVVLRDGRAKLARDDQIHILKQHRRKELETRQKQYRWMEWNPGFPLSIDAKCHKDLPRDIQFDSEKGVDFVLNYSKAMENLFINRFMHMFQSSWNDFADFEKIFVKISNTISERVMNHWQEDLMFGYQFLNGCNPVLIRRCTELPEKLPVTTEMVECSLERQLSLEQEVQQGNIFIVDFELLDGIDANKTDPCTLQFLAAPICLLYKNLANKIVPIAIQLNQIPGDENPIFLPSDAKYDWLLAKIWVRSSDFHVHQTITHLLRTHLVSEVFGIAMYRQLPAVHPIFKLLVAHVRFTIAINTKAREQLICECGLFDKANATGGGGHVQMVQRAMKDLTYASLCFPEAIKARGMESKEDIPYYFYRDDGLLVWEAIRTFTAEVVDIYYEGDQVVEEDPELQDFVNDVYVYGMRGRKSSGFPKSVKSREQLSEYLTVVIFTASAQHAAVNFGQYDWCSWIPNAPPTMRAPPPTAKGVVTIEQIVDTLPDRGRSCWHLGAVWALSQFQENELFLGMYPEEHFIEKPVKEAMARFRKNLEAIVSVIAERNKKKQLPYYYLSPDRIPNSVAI
Assay: Activity of compounds against 5-LO enzyme (LTB4 measurement and/or fluorescence method)
Format: biochemical
Settings: for inhibition at 10 µM: 5-LO, single concentration of 10 uM in duplicate; for IC50: 6 or 11 point dose response in duplicate
Method: The activity of compounds against 5-LO were determined by measuring LTB4 (leukotriene B4) levels and/or by a fluorescence method. Both approaches are outlined in more detail below;
Human 5-lipoxygenase (Cayman, Cat#60402) produced in insect cells was pre-incubated with compound for 15 min at RT in incubation buffer (50 mM Tris-Cl, pH 7.4, 2 mM CaCl2, 0.1 mM ATP, 1% DMSO). The enzymatic reaction was started by adding arachidonic acid to a final concentration of 3 uM. After 5 min of incubation at 37° C., the reaction was stopped by heatinactivation at 80° C. for 5 min. LTB4 levels were quantified by using LTB4 EIA kit (Cayman, Cat#520111) as instructed and/or LTB4 levelswere measured with LC/MS/MS using Quattro Premier™ XE tandem quadrupole mass spectrometer equipped with Acquity UPLC system (Waters, Milford, Mass.). The method was slightly modified as reported previously (Zweifel et al., 2008, Willey et al., 2008, Chappell et al, 2011). Briefly, chromatographic separation was carried out with Acquity UPLC BEH Shield RP18 Column (2.1 mm×50 mm, 1.7 μm particle size, Waters, Milford, Mass.). Sample injection volume was 10 μl, the column temperature was 35° C., the mobile phase A consisted of water with 0.1% formic acid and the mobile phase B consisted of acetonitrile with 0.1% formic acid. Flow rate was 0.4 mL/min and the gradient condition was as follows.
Relative quantification of LTB4 and LTB4-d4 (Internal Standard) was done using multi reaction monitoring (MRM) of the transitions of m/z 335→195 for LTB4, 339→197 for LTB4-d4 in electrospray ionization (ESI) negative mode. Desolvation temperature was 400° C., source temperature was 130° C. Capillary voltage, cone voltage, and collision voltage were 3.5 kV, 30V, and 20 eV, respectively. Nitrogen was used for desolvation (750 L/h) and cone (50 L/h) gas. Argon was used for collision gas (0.22 ml/min). The dwell time was 10 ms.
Besides the two methods quantifying LTB4 level, a fluorescence assay measuring 5-HpETE was introduced for high-throughput screening in a 384 well microplate format (Pufahl et al., 2007). For nonspecific ester cleavage of the acetate groups in H2DCFDA, the insect cell lysate expressing human 5-LO (Cayman Cat#60402) was incubated with H2DCFDA (50 mM Tris-Cl, pH 7.5, 2 mM CaCl2, 20 uM H2DCFDA, 500 mU 5-LO per reaction) for 5 minutes. Compound and enzyme mixture were pre-incubated for 5 minutes, and the enzymatic reaction was initiated by addition of ATP and arachidonic acid to a final concentration of 100 uM and 3 uM, respectively. After 5 minutes of incubation, the fluorescence was measured using Spectramax M5 (Molecular Device, Ex/Em=485 nm/530 nm). All steps were carried out at room temperature.
A total of 378 compounds were initially tested at a single concentration of 10 uM in duplicate with the results summarized in Table 1. From these 378 compounds, 53 compounds plus an additional 25 were selected for confirmation of activity by 6 or 11 point dose response in duplicate with the corresponding IC50 values outlined in Table 2.

CCc1nc2ccc(Br)cn2c1C(=O)NCc1ccc(Oc2ccc(F)cc2)cc1 [compound 177, 6-Bromo-2-ethyl-N-(4-(4-fluorophenoxy)benzyl)imidazo[1,2-a]pyridine-3-carboxamide]
inhibition at 10 µM: < 40%

CCc1nc2cc(Cl)ccn2c1NC(=O)Cc1ccc(-c2ccccc2)cc1 [compound 116, 2-(Biphenyl-4-yl)-N-(7-chloro-2-ethylimidazo[1,2-a]pyridin-3-yl)acetamide]
inhibition at 10 µM: 40 to 69%

Cc1nc2cc(-c3ccccc3)ccn2c1C(=O)O [compound 19, 2-Methyl-7-phenylimidazo[1,2-a]pyridine-3-carboxylic acid]
inhibition at 10 µM: < 40%

CCc1nc2ccc(Cl)cn2c1C(=O)N1CCC(OCc2ccccc2F)CC1 [compound 337, (6-chloro-2-ethylimidazo[1,2-a]pyridin-3-yl)(4-((2-fluorobenzyl)oxy)piperidin-1-yl)methanone]
inhibition at 10 µM: < 40%

Cc1nc2ccccn2c1C(=O)NCc1ccc(F)cc1 [compound 4, N-(4-Fluorobenzyl)-2-methylimidazo[1,2-a]pyridine-3-carboxamide]
inhibition at 10 µM: < 40%

CCc1nc2cc(Cl)ccn2c1C(=O)NCc1ccc(-c2cccc(C#N)c2)cc1 [compound 101, 7-Chloro-N-((3′-cyanobiphenyl-4-yl)methyl)-2-ethylimidazo[1,2-a]pyridine-3-carboxamide]
inhibition at 10 µM: 40 to 69%

CCc1nc2ccc(Cl)cn2c1C(=O)NCc1ccc(OCc2ccc(OC(F)(F)F)cc2)cc1 [compound 170]
inhibition at 10 µM: < 40%

CCc1nc2ccc(Cl)cn2c1C(=O)NCc1ccc(N2CCC(Oc3ccc(OC(F)(F)F)cc3)CC2)cc1 [compound 122, 6-Chloro-2-ethyl-N-(4-(4-(4-(trifluoromethoxy)phenoxy)piperidin-1-yl)benzyl)imidazo[1,2-a]pyridine-3-carboxamide]
inhibition at 10 µM: 40 to 69%

CCc1nc2ccc(Cl)cn2c1C(=O)NCc1ccc(-c2ccccc2C(F)(F)F)cc1 [compound 98, 6-Chloro-2-ethyl-N-((2′-(trifluoromethyl)biphenyl-4-yl)methyl)imidazo[1,2-a]pyridine-3-carboxamide]
inhibition at 10 µM: 40 to 69%

Cc1nc2c(C(F)(F)F)cccn2c1C(=O)NCc1ccccc1 [compound 36, N-Benzyl-2-methyl-8-(trifluoromethyl)imidazo[1,2-a]pyridine-3-carboxamide]
inhibition at 10 µM: < 40%

CCc1nc2cc(Cl)ccn2c1C(=O)NCc1ccc(Oc2ccc(OC(F)(F)F)cc2)nc1 [compound 190, 7-Chloro-2-ethyl-N-((6-(4-(trifluoromethoxy)phenoxy)pyridin-3-yl)methy)imidazo[1,2-a]pyridine-3-carboxamide]
inhibition at 10 µM: > 69% | IC50: 1 to 20 µM

CCc1nc2ccc(Cl)cn2c1C(=O)NCc1ccc(N2CCC(COC3CCCC3)CC2)cc1 [compound 285, 6-Chloro-N-(4-(4-(cyclopentyloxymethyl)piperidin-1-yl)benzyl)-2-ethylimidazo[1,2-a]pyridine-3-carboxamide]
inhibition at 10 µM: < 40%

CCc1nc2c(-c3ccncc3)cccn2c1C(=O)NCc1ccc(N2CCOCC2)cc1 [compound 284, 2-Ethyl-N-(4-morpholinobenzyl)-8-(pyridin-4-yl)imidazo[1,2-a]pyridine-3-carboxamide]
inhibition at 10 µM: < 40%

CCc1nc2ccc(Cl)cn2c1CN1CCN(c2ccc(F)cc2)CC1 [compound 397, 6-chloro-2-ethyl-3-((4-(4-fluorophenyl)piperazin-1-yl)methyl)imidazo[1,2-a]pyridine]
IC50: > 20 µM

CCc1nc2cc(Cl)ccn2c1C(=O)NCc1ccc(-c2ccc(C(F)(F)F)cc2)cc1 [compound 111, 7-Chloro-2-ethyl-N-((4′-(trifluoromethyl)biphenyl-4-yl)methyl)imidazo[1,2-a]pyridine-3-carboxamide]
inhibition at 10 µM: < 40%

Cc1nc2c(C)cccn2c1C(=O)NCc1ccccc1 [compound 31, N-Benzyl-2,8-dimethylimidazo[1,2-a]pyridine-3-carboxamide]
inhibition at 10 µM: < 40%

CCc1nc2ccc(Cl)cn2c1C(=O)NCc1ccc(-c2cccc(C)c2)cc1 [compound 76, 6-Chloro-2-ethyl-N-((3′-methylbiphenyl-4-yl)methyl)imidazo[1,2-a]pyridine-3-carboxamide]
inhibition at 10 µM: 40 to 69%

Cc1nc2ccccn2c1C(=O)NCCOc1ccccc1 [compound 28, 2-Methyl-N-(2-phenoxyethyl)imidazo[1,2-a]pyridine-3-carboxamide]
inhibition at 10 µM: < 40%

CCc1nc2ccc(Cl)cn2c1C(=O)NCc1ccc2ccn(C)c2c1 [compound 68]
inhibition at 10 µM: < 40%

CCc1nc2ccc(Cl)cn2c1C(=O)NCc1ccc(N2CCC(Oc3ccc(F)cc3)CC2)cc1 [compound 308, 6-Chloro-2-ethyl-N-(4-(4-(4-fluorophenoxy)piperidin-1-yl)benzyl)imidazo[1,2-a]pyridine-3-carboxamide]
inhibition at 10 µM: 40 to 69%

Cc1nc2ccccn2c1C(=O)Nc1ccc(Oc2ccccc2)cc1 [compound 13, 2-Methyl-N-(4-phenoxyphenyl)imidazo[1,2-a]pyridine-3-carboxamide]
inhibition at 10 µM: < 40%

CCc1nc2cc(Cl)ccn2c1CNc1ccc(N2CCC(c3ccc(OC(F)(F)F)cc3)CC2)cc1 [compound 376, N-((7-chloro-2-ethylimidazo[1,2-a]pyridin-3-yl)methyl)-4-(4-(4-(trifluoromethoxy)phenyl)piperidin-1-yl)aniline]
inhibition at 10 µM: > 69%

Cc1nc2ccc(Cl)cn2c1C(=O)NCc1ccc(-c2ccccc2)cc1 [compound 43, N-(Biphenyl-4-ylmethyl)-6-chloro-2-methylimidazo[1,2-a]pyridine-3-carboxamide]
inhibition at 10 µM: < 40%

CCc1nc2cc(Cl)ccn2c1C(=O)NCc1ccc(N2CCC(=O)CC2)cc1 [compound 200, 7-Chloro-2-ethyl-N-(4-(4-oxopiperidin-1-yl)benzyl)imidazo[1,2-a]pyridine-3-carboxamide]
inhibition at 10 µM: 40 to 69%

CCc1nc2cc(Cl)ccn2c1C(=O)NCc1ccc(OCc2ccc(F)cc2)cc1 [compound 173, 7-Chloro-2-ethyl-N-(4-(4-fluorobenzyloxy)benzyl)imidazo[1,2-a]pyridine-3-carboxamide]
inhibition at 10 µM: 40 to 69%

COc1ccc(CNC(=O)c2c(C)nc3ccccn23)cc1 [compound 7, N-(4-Methoxybenzyl)-2-methylimidazo[1,2-a]pyridine-3-carboxamide]
inhibition at 10 µM: < 40%

CCc1nc2ccc(Cl)cn2c1C(=O)NCc1ccc(-c2ccccc2Cl)cc1 [compound 72, 6-Chloro-N-((2′-chlorobiphenyl-4-yl)methyl)-2-ethylimidazo[1,2-a]pyridine-3-carboxamide]
inhibition at 10 µM: 40 to 69%

CCc1nc2cc(Cl)ccn2c1C(=O)NCc1ccc(OC(F)(F)F)cc1 [compound 107, 7-Chloro-2-ethyl-N-(4-(trifluoromethoxy)benzyl)imidazo[1,2-a]pyridine-3-carboxamide]
inhibition at 10 µM: 40 to 69%

CCc1nc2cc(Cl)ccn2c1C(=O)NCc1ccc(Cl)cc1 [compound 84, 7-Chloro-N-(4-chlorobenzyl)-2-ethylimidazo[1,2-a]pyridine-3-carboxamide]
inhibition at 10 µM: 40 to 69%
